Data set [1] can be described thus: Human Liver Microsomal Stability. The settings on record: human liver microsomes.
Data set [2] in a line: Mouse Liver Microsomal Stability. The conditions noted are these: mouse liver microsomes. A general note: Liver microsomes are a subcellular fraction often used to study metabolism.

As to `Cc1onc(-c2ccccc2Cl)c1C(=O)N1CCN(c2ccc([N+](=O)[O-])cc2F)CC1` [Example 4], the “Human Liver Microsomal Stability (% Remaining after 10 minutes)” value in data set [1] is given as 72%. Further, in data set [2], the “Mouse Liver Microsomal Stability (% Remaining after 10 minutes)” value was 86%.

With `Cc1onc(-c2ccc(F)cc2)c1C(=O)N1CCN(c2ccc([N+](=O)[O-])cc2Cl)CC1` [Example 27], the “Human Liver Microsomal Stability (% Remaining after 10 minutes)” value in data set [1] worked out at 66%. In data set [2], the “Mouse Liver Microsomal Stability (% Remaining after 10 minutes)” value came to 86%.

As for `Cc1onc(-c2cccc(Cl)c2)c1C(=O)N1CCN(c2ccc([N+](=O)[O-])cc2Cl)CC1` [Example 28], in data set [1], the “Human Liver Microsomal Stability (% Remaining after 10 minutes)” value worked out at 94%. Also, the “Mouse Liver Microsomal Stability (% Remaining after 10 minutes)” value in data set [2] amounted to 85%.

On to `COc1cc(F)ccc1-c1noc(C)c1C(=O)N1CCN(c2ccc([N+](=O)[O-])cc2Cl)CC1` [Example 29], for which, in data set [1], the “Human Liver Microsomal Stability (% Remaining after 10 minutes)” value turned out to be 68%. Besides, the “Mouse Liver Microsomal Stability (% Remaining after 10 minutes)” value in data set [2] was found to be 28%.

`COc1ncccc1-c1noc(C)c1C(=O)N1CCN(c2ccc([N+](=O)[O-])cc2Cl)CC1` [Example 45]: the “Human Liver Microsomal Stability (% Remaining after 10 minutes)” value in data set [1] was determined as 56%. In data set [2], the “Mouse Liver Microsomal Stability (% Remaining after 10 minutes)” value is 33%.

In the case of `COc1ccccc1-c1n[nH]c(C)c1C(=O)N1CCN(c2ncc([N+](=O)[O-])cc2Cl)CC1` [Example 83], in data set [1], the “Human Liver Microsomal Stability (% Remaining after 10 minutes)” value came to 52%. In addition, the “Mouse Liver Microsomal Stability (% Remaining after 10 minutes)” value in data set [2] is recorded as 16%.

As to `Cc1onc(-c2ccccc2O)c1C(=O)N1CCN(c2ncc(Cl)cc2Cl)CC1` [Example 142, (4-(3,5-dichloropyridin-2-yl)piperazin-1-yl)(3-(2-hydroxyphenyl)-5-methylisoxazol-4-yl)methanone], the “Human Liver Microsomal Stability (% Remaining after 10 minutes)” value in data set [1] worked out at 80%. Besides, the “Mouse Liver Microsomal Stability (% Remaining after 10 minutes)” value in data set [2] worked out at 34%.

Regarding `Cc1onc(-c2ccccc2C(N)=O)c1C(=O)N1CCN(c2ccc([N+](=O)[O-])cc2Cl)CC1` [Example 155, 2-(4-(4-(2-chloro-4-nitrophenyl)piperazine-1-carbonyl)-5-methylisoxazol-3-yl)benzamide], the “Human Liver Microsomal Stability (% Remaining after 10 minutes)” value in data set [1] is on record as 80%. Moreover, the “Mouse Liver Microsomal Stability (% Remaining after 10 minutes)” value in data set [2] is given as 61%.

Take `COc1ccc(N)cc1-c1noc(C)c1C(=O)N1CCN(c2ncc(Cl)cc2Cl)CC1` [Example 159, (3-(5-amino-2-methoxyphenyl)-5-methylisoxazol-4-yl)(4-(3,5-dichloropyridin-2-yl)piperazin-1-yl)methanone]: the “Human Liver Microsomal Stability (% Remaining after 10 minutes)” value in data set [1] is listed as 62%. The “Mouse Liver Microsomal Stability (% Remaining after 10 minutes)” value in data set [2] came to 36%.

Take `COc1ccc(NS(C)(=O)=O)cc1-c1noc(C)c1C(=O)N1CCN(c2ncc(Cl)cc2Cl)CC1` [Example 161, N-(3-(4-(4-(3,5-dichloropyridin-2-yl)piperazine-1-carbonyl)-5-methylisoxazol-3-yl)-4-methoxyphenyl)methanesulfonamide]: the “Human Liver Microsomal Stability (% Remaining after 10 minutes)” value in data set [1] came to 70%. For the same compound, the “Mouse Liver Microsomal Stability (% Remaining after 10 minutes)” value in data set [2] stood at 8%.

Consider `COc1ccc(NS(C)(=O)=O)cc1-c1noc(C)c1C(=O)N1CCN(c2ccc([N+](=O)[O-])cc2Cl)CC1` [Example 163], for which the “Human Liver Microsomal Stability (% Remaining after 10 minutes)” value in data set [1] came to 75%. Also, the “Mouse Liver Microsomal Stability (% Remaining after 10 minutes)” value in data set [2] is on record as 49%.

As to `Cc1onc(-c2ccccc2)c1C(=O)N1CCN(c2ccc([N+](=O)[O-])cc2Cl)CC1` [reference compound], the “Human Liver Microsomal Stability (% Remaining after 10 minutes)” value in data set [1] came out at 40%. Moreover, the “Mouse Liver Microsomal Stability (% Remaining after 10 minutes)” value in data set [2] was 20%.

Consider `Cc1onc(-c2ccccc2Cl)c1C(=O)N1CCN(c2ccc([N+](=O)[O-])cc2Cl)CC1` [reference compound], for which the “Human Liver Microsomal Stability (% Remaining after 10 minutes)” value in data set [1] is 6%. The “Mouse Liver Microsomal Stability (% Remaining after 10 minutes)” value in data set [2] amounted to 0%.

Source of the values: US20120245176A1, “NOVEL […] WITH S[…] AS BROAD-[…] INFLUENZA ANTIVIRALS” (priority 2010, published 2012).
